What was measured:
[1] = target: T1, Metabotropic glutamate receptor 5 (Rattus norvegicus, UniProt P31424); assay: Activity at rat mGlu5 receptor expressed in CHO cells assessed as inhibition of quisqualate-stimulated calcium mobilization by FLIPR assay; format: functional, cell-based
[2] = system: Rattus norvegicus; assay: Anxiolytic activity in thirsty naive rat assessed as shock episodes at 10 mg/kg, po by Vogel assay relative to control; format: functional
[3] = target: T1, Metabotropic glutamate receptor 5; assay: Displacement of [3H]MPEP from mGlu5 receptor in rat brain; format: tissue-based

T1 sequence (P31424 whole entry): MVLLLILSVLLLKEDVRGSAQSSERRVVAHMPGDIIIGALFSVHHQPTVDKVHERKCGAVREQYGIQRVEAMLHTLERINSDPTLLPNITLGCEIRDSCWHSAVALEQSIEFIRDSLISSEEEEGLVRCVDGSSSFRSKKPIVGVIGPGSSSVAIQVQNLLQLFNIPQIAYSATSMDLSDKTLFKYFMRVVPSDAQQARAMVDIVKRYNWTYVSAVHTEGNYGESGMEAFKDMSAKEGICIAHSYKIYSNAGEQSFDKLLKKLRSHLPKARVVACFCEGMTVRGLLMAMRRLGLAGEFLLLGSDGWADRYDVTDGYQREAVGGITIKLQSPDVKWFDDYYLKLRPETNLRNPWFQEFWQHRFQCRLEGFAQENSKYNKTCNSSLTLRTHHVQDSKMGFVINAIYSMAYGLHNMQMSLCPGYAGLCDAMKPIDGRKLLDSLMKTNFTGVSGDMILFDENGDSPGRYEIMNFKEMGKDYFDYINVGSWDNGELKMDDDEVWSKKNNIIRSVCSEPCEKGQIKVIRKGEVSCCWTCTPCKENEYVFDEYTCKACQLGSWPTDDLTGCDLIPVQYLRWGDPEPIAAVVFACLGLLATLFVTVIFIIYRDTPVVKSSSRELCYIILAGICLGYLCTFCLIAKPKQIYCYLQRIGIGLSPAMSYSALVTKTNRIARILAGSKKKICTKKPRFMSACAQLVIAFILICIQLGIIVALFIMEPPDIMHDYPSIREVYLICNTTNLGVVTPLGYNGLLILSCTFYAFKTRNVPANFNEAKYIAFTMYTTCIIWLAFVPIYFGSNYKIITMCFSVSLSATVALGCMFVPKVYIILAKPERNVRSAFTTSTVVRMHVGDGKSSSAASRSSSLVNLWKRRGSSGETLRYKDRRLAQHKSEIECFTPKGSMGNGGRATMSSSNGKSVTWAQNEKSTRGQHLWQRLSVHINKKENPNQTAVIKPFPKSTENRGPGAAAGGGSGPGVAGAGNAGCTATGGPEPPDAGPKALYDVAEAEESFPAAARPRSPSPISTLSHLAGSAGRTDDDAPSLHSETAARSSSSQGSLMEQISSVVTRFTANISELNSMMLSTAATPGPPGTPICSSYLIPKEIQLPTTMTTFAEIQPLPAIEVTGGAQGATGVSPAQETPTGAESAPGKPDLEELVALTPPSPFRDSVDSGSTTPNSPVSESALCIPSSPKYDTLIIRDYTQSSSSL

`Cc1ccc2ccc(-c3cccnc3)cc2n1` gave an IC50 [1] of 510 nM.
`Cc1ccc2ccc(-c3cccc(F)c3)cc2n1` was tested, and the IC50 [1] was 1800 nM.
`Cc1cccc(-c2ccc3ccc(C)nc3c2)c1` was tested, and the IC50 [1] was 3400 nM.
For `Cc1ccc2ccc(-c3cc(C#N)cc(C#N)c3)cc2n1`, the IC50 [1] was 2 nM.
With `COCc1cc(C#N)cc(-c2ccc3ccc(C)nc3c2)c1` the IC50 [1] was 2 nM.
Work on `COCc1cccc(-c2ccc3ccc(C)nc3c2)c1` yielded an IC50 [1] of 5800 nM.
`Cc1ccc2ccc(-c3cccc(CO)c3)cc2n1` gave an IC50 [1] of 8700 nM.
`Cc1ccc2ccc(-c3cccc(Cl)c3)cc2n1` showed an IC50 [1] of 14000 nM.
For `Cc1ccc2ccc(-c3cccc(O)c3)cc2n1`, the IC50 [1] was 19000 nM.
`Cc1ccc2ccc(-c3cccc(C(N)=O)c3)cc2n1` was tested, and the IC50 [1] was > 10000 nM.
`COc1ccccc1-c1ccc2ccc(C)nc2c1` was tested, and the IC50 [1] was 4200 nM.
For `Cc1ccc2ccc(-c3cccc(C(F)(F)F)c3)cc2n1`, the IC50 [1] was > 10000 nM.
In the case of `Cc1ccc2ccc(-c3ccc(C#N)cc3)cc2n1`, the IC50 [1] is reported as > 10000 nM.
`Cc1ccc2ccc(-c3cc(F)cc(C#N)c3)cc2n1` gave an Activity [2] of 100%, a Ki [3] of 22 nM and an IC50 [1] of 0.8 nM.
`Cc1cc(C#N)cc(-c2ccc3ccc(C)nc3c2)c1` was tested, and the IC50 [1] was 1.6 nM.
`CCOc1cc(C#N)cc(-c2ccc3ccc(C)nc3c2)c1` showed an IC50 [1] of 17 nM.
`CC(=O)c1cccc(-c2ccc3ccc(C)nc3c2)c1` was tested, and the IC50 [1] was 4760 nM.
For `COc1cc(C#N)cc(-c2ccc3ccc(C)nc3c2)c1`, the IC50 [1] was 2.4 nM.
With `Cc1ccc2ccc(-c3cncc(C#N)c3)cc2n1` the IC50 [1] was 23 nM.
For `CCSc1cc(C#N)cc(-c2ccc3ccc(C)nc3c2)c1`, the IC50 [1] was 72 nM.
`COCCOc1cc(C#N)cc(-c2ccc3ccc(C)nc3c2)c1` showed an IC50 [1] of 82 nM.
With `Cc1ccc2ccc(-c3cc(C#N)cc(OC(C)C)c3)cc2n1` the IC50 [1] was 310 nM.
`Cc1ccc2ccc(-c3cc(O)cc(C#N)c3)cc2n1` gave an IC50 [1] of 360 nM.
For `CCS(=O)(=O)c1cc(C#N)cc(-c2ccc3ccc(C)nc3c2)c1`, the IC50 [1] was 1090 nM.
With `Cc1ccc2ccc(-c3ccccc3)cc2n1` the IC50 [1] was 9000 nM.
`Cc1ccc2ccc(-c3cccc(C#N)c3)cc2n1` gave a Ki [3] of 72 nM and an IC50 [1] of 7.7 nM.
For `Cc1ccc2ccc(-c3cccc(CC#N)c3)cc2n1`, the IC50 [1] was 430 nM.
Work on `COc1cccc(-c2ccc3ccc(C)nc3c2)c1` yielded an IC50 [1] of 860 nM.
With `Cc1ccc2ccc(-c3cccc(OC(F)(F)F)c3)cc2n1` the IC50 [1] was > 10000 nM.
Work on `COc1ccc(-c2ccc3ccc(C)nc3c2)cc1` yielded an IC50 [1] of 16000 nM.
`Cc1ccc2ccc(-c3cc(Cl)cc(C#N)c3)cc2n1` was tested, and the IC50 [1] was 1.4 nM.
With `Cc1ccc2ccc(-c3cc(Br)cc(C#N)c3)cc2n1` the IC50 [1] was 13 nM.
`Cc1ccc2ccc(-c3cc(C#N)cc(OC(F)(F)F)c3)cc2n1` showed an IC50 [1] of 75 nM.
Work on `Cc1ccc2ccc(-c3cc(C#N)cc(OCC(C)C)c3)cc2n1` yielded an IC50 [1] of 12000 nM.
Compound `Cc1ccc2ccc(-c3ccccc3C#N)cc2n1` has an IC50 [1] of 9800 nM.
Compound `Cc1cccc(C#Cc2ccccc2)n1` has an Activity [2] of 80%.

Source: ChEMBL document CHEMBL1149577, “Rational design of 7-arylquinolines as non-competitive metabotropic glutamate receptor subtype 5 antagonists” (Bioorg Med Chem Lett, 2007)
